In publication PMC3543868 (Cell reports, 2012):

Target: GroEL in complex with its cofactor GroES (Escherichia coli, UniProt P0A6F5)
Settings: with GroES (singly capped); no AlFx; labelled compound

Chain of GroEL in complex with its cofactor GroES (P0A6F5 2-548): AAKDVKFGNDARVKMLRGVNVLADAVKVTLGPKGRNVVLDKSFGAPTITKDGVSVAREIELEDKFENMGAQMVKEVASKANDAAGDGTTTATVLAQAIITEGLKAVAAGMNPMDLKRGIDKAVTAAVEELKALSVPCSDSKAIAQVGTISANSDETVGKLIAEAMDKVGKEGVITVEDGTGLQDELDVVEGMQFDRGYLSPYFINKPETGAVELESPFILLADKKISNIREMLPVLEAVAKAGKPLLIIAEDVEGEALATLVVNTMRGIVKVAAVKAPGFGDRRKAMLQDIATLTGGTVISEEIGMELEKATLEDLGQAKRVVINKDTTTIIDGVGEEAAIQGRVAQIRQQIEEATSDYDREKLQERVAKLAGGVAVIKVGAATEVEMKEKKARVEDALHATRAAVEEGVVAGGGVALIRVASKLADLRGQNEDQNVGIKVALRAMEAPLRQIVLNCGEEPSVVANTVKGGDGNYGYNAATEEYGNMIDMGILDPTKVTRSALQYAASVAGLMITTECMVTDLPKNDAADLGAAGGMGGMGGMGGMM
Chain of GroEL in complex with its cofactor GroES (P0A6F9 whole entry, further chain): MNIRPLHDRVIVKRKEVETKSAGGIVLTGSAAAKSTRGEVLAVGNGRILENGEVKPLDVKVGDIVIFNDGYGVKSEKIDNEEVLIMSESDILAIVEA

SMILES: Nc1ncnc2c1ncn2[C@@H]1O[C@H](COP(=O)(O)OP(=O)(O)OP(=O)(O)O)[C@@H](O)[C@H]1O [ATP]
- nucleotides per GroEL 14-mer: ~ 7 nucleotides per GroEL 14-mer
